# Results from BindingDB's records for doi:10.1016/0960-894X(96)00287-9 (1996).
# Assay: Compound was tested for inhibition of NK1 receptor from gerbil midbrain; NT means not tested
row,Structure (SMILES),IC50 [nM]
1,"CC(C)NC(=O)N[C@H]1CCN(C(=O)c2cc(C(F)(F)F)cc(C(F)(F)F)c2)[C@H](Cc2ccccc2)C1 [1-[(2R,4S)-2-Benzyl-1-(3,5-bis-trifluoromethyl-benzoyl)-piperidin-4-yl]-3-isopropyl-urea]",20
2,"O=C(Nc1ccccc1)N[C@H]1CCN(C(=O)c2cc(Cl)cc(Cl)c2)[C@H](Cc2ccccc2)C1 [1-[(2R,4S)-2-Benzyl-1-(3,5-dichloro-benzoyl)-piperidin-4-yl]-3-phenyl-urea]",72
3,"O=C(Cc1ccccc1)N1CC[C@H](NCc2ccnc3ccccc23)C[C@H]1Cc1ccccc1 [1-{(2R,4S)-2-Benzyl-4-[(quinolin-4-ylmethyl)-amino]-piperidin-1-yl}-2-phenyl-ethanone]",3300
4,"NCC(=O)N[C@H]1CCN(C(=O)c2cc(C(F)(F)F)cc(C(F)(F)F)c2)[C@H](Cc2ccccc2)C1 [2-Amino-N-[(2R,4S)-2-benzyl-1-(3,5-bis-trifluoromethyl-benzoyl)-piperidin-4-yl]-acetamide]",62
5,"NC(=O)CN[C@H]1CCN(C(=O)c2cc(C(F)(F)F)cc(C(F)(F)F)c2)[C@H](Cc2ccccc2)C1 [2-[(2R,4S)-2-Benzyl-1-(3,5-bis-trifluoromethyl-benzoyl)-piperidin-4-ylamino]-acetamide]",10
6,"Cc1cc(C)cc(C(=O)N2CC[C@H](NCc3ccccc3)C[C@H]2Cc2ccccc2)c1 [((2R,4S)-2-Benzyl-4-benzylamino-piperidin-1-yl)-(3,5-dimethyl-phenyl)-methanone]",220
7,"O=C(c1cc(Cl)cc(Cl)c1)N1CC[C@H](N(Cc2ccnc3ccccc23)C(=O)C(F)(F)F)C[C@H]1Cc1ccccc1 [N-[(2R,4S)-2-Benzyl-1-(3,5-dichloro-benzoyl)-piperidin-4-yl]-2,2,2-trifluoro-N-quinolin-4-ylmethyl-acetamide]",600
8,"O=C(Cc1ccccc1)N[C@H]1CCN(C(=O)c2cc(Cl)cc(Cl)c2)[C@H](Cc2ccccc2)C1 [N-[(2R,4S)-2-Benzyl-1-(3,5-dichloro-benzoyl)-piperidin-4-yl]-2-phenyl-acetamide]",60
9,"COc1cc(CC(=O)N[C@H]2CCN(C(=O)c3cc(C)cc(C)c3)[C@H](Cc3ccccc3)C2)cc(OC)c1 [N-[(2R,4S)-2-Benzyl-1-(3,5-dimethyl-benzoyl)-piperidin-4-yl]-2-(3,5-dimethoxy-phenyl)-acetamide]",12
10,"O=S(=O)(c1cc(C(F)(F)F)cc(C(F)(F)F)c1)N1CC[C@H](NCc2ccnc3ccccc23)C[C@H]1Cc1ccccc1 [[(2R,4S)-2-Benzyl-1-(3,5-bis-trifluoromethyl-benzenesulfonyl)-piperidin-4-yl]-quinolin-4-ylmethyl-amine]",> 10000
11,"CN(C)CCCOC(=O)N[C@H]1CCN(C(=O)c2cc(C(F)(F)F)cc(C(F)(F)F)c2)[C@H](Cc2ccccc2)C1 [[(2R,4S)-2-Benzyl-1-(3,5-bis-trifluoromethyl-benzoyl)-piperidin-4-yl]-carbamic acid 3-dimethylamino-propyl ester]",11
12,"FC(F)(F)c1cc(CN2CC[C@H](NCc3ccnc4ccccc34)C[C@H]2Cc2ccccc2)cc(C(F)(F)F)c1 [[(2R,4S)-2-Benzyl-1-(3,5-bis-trifluoromethyl-benzyl)-piperidin-4-yl]-quinolin-4-ylmethyl-amine]",880
13,"CN(Cc1ccnc2ccccc12)[C@H]1CCN(C(=O)c2cc(Cl)cc(Cl)c2)[C@H](Cc2ccccc2)C1 [[(2R,4S)-2-Benzyl-4-(methyl-quinolin-4-ylmethyl-amino)-piperidin-1-yl]-(3,5-dichloro-phenyl)-methanone]",390

# Continued, values first:
row,IC50 [nM],Structure (SMILES)
1,19,"Cc1cc(C)cc(C(=O)N2CC[C@H](NCc3cc4ccccc4cn3)C[C@H]2Cc2ccccc2)c1 [{(2R,4S)-2-Benzyl-4-[(isoquinolin-3-ylmethyl)-amino]-piperidin-1-yl}-(3,5-dimethyl-phenyl)-methanone]"
2,210,"Cc1cc(C)cc(C(=O)N2CC[C@H](NCc3ccncc3)C[C@H]2Cc2ccccc2)c1 [{(2R,4S)-2-Benzyl-4-[(pyridin-4-ylmethyl)-amino]-piperidin-1-yl}-(3,5-dimethyl-phenyl)-methanone]"
3,17,"O=C(c1cc(C(F)(F)F)cc(C(F)(F)F)c1)N1CC[C@H](NCc2ccnc3ccccc23)C[C@H]1Cc1ccccc1 [{(2R,4S)-2-Benzyl-4-[(quinolin-4-ylmethyl)-amino]-piperidin-1-yl}-(3,5-bis-trifluoromethyl-phenyl)-methanone]"
4,24,"O=C(c1cc(Br)cc(Br)c1)N1CC[C@H](NCc2ccnc3ccccc23)C[C@H]1Cc1ccccc1 [{(2R,4S)-2-Benzyl-4-[(quinolin-4-ylmethyl)-amino]-piperidin-1-yl}-(3,5-dibromo-phenyl)-methanone]"
5,26,"O=C(c1cc(Cl)cc(Cl)c1)N1CC[C@H](NCc2ccnc3ccccc23)C[C@H]1Cc1ccccc1 [{(2R,4S)-2-Benzyl-4-[(quinolin-4-ylmethyl)-amino]-piperidin-1-yl}-(3,5-dichloro-phenyl)-methanone]"
6,520,"O=C(c1cc(O)cc(O)c1)N1CC[C@H](NCc2ccnc3ccccc23)C[C@H]1Cc1ccccc1 [{(2R,4S)-2-Benzyl-4-[(quinolin-4-ylmethyl)-amino]-piperidin-1-yl}-(3,5-dihydroxy-phenyl)-methanone]"
7,92,"COc1cc(OC)cc(C(=O)N2CC[C@H](NCc3ccnc4ccccc34)C[C@H]2Cc2ccccc2)c1 [{(2R,4S)-2-Benzyl-4-[(quinolin-4-ylmethyl)-amino]-piperidin-1-yl}-(3,5-dimethoxy-phenyl)-methanone]"
8,54,"O=C(c1cccc(Cl)c1)N1CC[C@H](NCc2ccnc3ccccc23)C[C@H]1Cc1ccccc1 [{(2R,4S)-2-Benzyl-4-[(quinolin-4-ylmethyl)-amino]-piperidin-1-yl}-(3-chloro-phenyl)-methanone]"
9,110,"O=C(c1cccc2ccccc12)N1CC[C@H](NCc2ccnc3ccccc23)C[C@H]1Cc1ccccc1 [{(2R,4S)-2-Benzyl-4-[(quinolin-4-ylmethyl)-amino]-piperidin-1-yl}-naphthalen-1-yl-methanone]"
10,700,"O=C(c1ccc2ccccc2c1)N1CC[C@H](NCc2ccnc3ccccc23)C[C@H]1Cc1ccccc1 [{(2R,4S)-2-Benzyl-4-[(quinolin-4-ylmethyl)-amino]-piperidin-1-yl}-naphthalen-2-yl-methanone]"

# Assay: Compound was tested for inhibition of [125I]eledoisin radioligand binding to NK3 receptor from gerbil cortex
row,IC50 [nM],Structure (SMILES)
1,10000,"Cc1cc(C)cc(C(=O)N2CC[C@H](NCc3cnc4ccccc4c3)C[C@H]2Cc2ccccc2)c1 [{(2R,4S)-2-Benzyl-4-[(quinolin-3-ylmethyl)-amino]-piperidin-1-yl}-(3,5-dimethyl-phenyl)-methanone]"

# Assay: Inhibition of [3H]-SP radioligand binding to NK1 receptor from bovine retina
row,IC50 [nM],Structure (SMILES)
1,30,"Cc1cc(C)cc(C(=O)N2CC[C@H](NCc3cnc4ccccc4c3)C[C@H]2Cc2ccccc2)c1 [{(2R,4S)-2-Benzyl-4-[(quinolin-3-ylmethyl)-amino]-piperidin-1-yl}-(3,5-dimethyl-phenyl)-methanone]"
